Assay results: ChEMBL document CHEMBL1152643, “Tedanol: a potent anti-inflammatory ent-pimarane diterpene from the Caribbean Sponge Tedania ignis” (Bioorg Med Chem, 2009)
Active and inactive are the calls of the source. The rule behind the calls is not given here.

Experiments:
Assay type in all cases: functional, organism-based
Mus musculus [1] = test: Antiinflammatory activity in ip dosed CD1 mouse assessed as inhibition of carrageenan-induced paw edema by hydroplethismometer
Mus musculus [2] = test: Antiinflammatory activity against carrageenan-induced inflammation in CD1 mouse assessed as inhibition of MPO activity at 1 mg/kg, ip after 4 hrs; parameters: dose 1 mg/kg
Mus musculus [3] = test: Antiinflammatory activity against carrageenan-induced inflammation in CD1 mouse assessed as inhibition of MPO activity at 1 mg/kg, ip after 48 hrs; parameters: dose 1 mg/kg
Mus musculus [4] = test: Antiinflammatory activity against carrageenan-induced inflammation in CD1 mouse assessed as inhibition of COX2 activity in early edema phase at 1 mg/kg, ip after 2 to 4 hrs by Western blot; parameters: dose 1 mg/kg
Mus musculus [5] = test: Antiinflammatory activity against carrageenan-induced inflammation in CD1 mouse assessed as inhibition of COX2 activity in second edema phase at 1 mg/kg, ip after 24 to 72 hrs by Western blot; parameters: dose 1 mg/kg
Mus musculus [6] = test: Antiinflammatory activity against carrageenan-induced inflammation in CD1 mouse assessed as inhibition of COX1 activity in second edema phase at 1 mg/kg, ip after 2 to 4 hrs by Western blot; parameters: dose 1 mg/kg
Mus musculus [7] = test: Antiinflammatory activity against carrageenan-induced inflammation in CD1 mouse assessed as inhibition of COX1 activity in second edema phase at 1 mg/kg, ip after 24 to 72 hrs by Western blot; parameters: dose 1 mg/kg
Mus musculus [8] = test: Antiinflammatory activity against carrageenan-induced inflammation in CD1 mouse assessed as inhibition of iNOS expression at 1 mg/kg, ip after 2 hrs by Western blot; parameters: dose 1 mg/kg
Mus musculus [9] = test: Antiinflammatory activity against carrageenan-induced inflammation in CD1 mouse assessed as inhibition of iNOS expression at 1 mg/kg, ip after 48 hrs by Western blot; parameters: dose 1 mg/kg

`CC1(C)[C@H](Br)CC[C@@]2(C)C3=CC[C@](C)([C@@H](Br)COS(=O)(=O)O)C[C@H]3[C@H](O)C[C@H]12` was tested, and the Activity (Mus musculus [1]) was “Dose-dependent effect”, the Activity (Mus musculus [2]) was “Active” and the Activity (Mus musculus [3]) was “Active”. For the same compound, the Activity (Mus musculus [4]) was “Active”, the Activity (Mus musculus [5]) was “Active” and the Activity (Mus musculus [6]) was “inactive”. For the same compound, the Activity (Mus musculus [7]) was “Active”, the Activity (Mus musculus [8]) was “Active” and the Activity (Mus musculus [9]) was “Active”.
